Reference: article PMC9537510, “Reduction of stress responses in honey bees by synthetic ligands targeting an allatostatin receptor” (Scientific Reports, 2022)

Key:
Assay type in all cases: cell-based
[1] = target: T1, allatostatin A receptor (ASTA-R) (Apis mellifera, UniProt A0A7M7ILT1); test: competition binding with fluorescence-labeled ASTA on ASTA-R-transfected HEK cells
T1 construct: gene LOC413582; receptor expressed in transfected HEK293T cells (NCBI: XP_006560262.1 used for the model)
T1 sequence (A0A7M7ILT1 1-361): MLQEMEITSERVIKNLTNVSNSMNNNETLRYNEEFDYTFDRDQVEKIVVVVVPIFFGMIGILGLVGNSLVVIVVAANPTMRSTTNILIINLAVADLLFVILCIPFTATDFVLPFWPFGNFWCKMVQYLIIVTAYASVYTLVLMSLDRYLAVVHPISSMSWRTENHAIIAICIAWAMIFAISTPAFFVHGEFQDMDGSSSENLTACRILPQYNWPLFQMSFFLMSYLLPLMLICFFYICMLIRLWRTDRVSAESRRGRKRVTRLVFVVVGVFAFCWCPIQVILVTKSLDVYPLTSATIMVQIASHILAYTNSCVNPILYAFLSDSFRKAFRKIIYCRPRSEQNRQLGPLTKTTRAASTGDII

[2] = target: T1, allatostatin A receptor (ASTA-R); test: competition binding with fluorescence-labeled ASTA on ASTA-R-transfected HEK cells; also cAMP antagonism
[3] = target: T1, allatostatin A receptor (ASTA-R); test: reversal of ASTA inhibition of forskolin-induced cAMP in ASTA-R-expressing cells; also weak competition binding (IC50 > […])

Compound: O=C(CSCCCc1ccccc1)Nc1cc(C(F)(F)F)ccc1-n1cncn1 [B3, N-(2-(1H-1,2,4-triazol-1-yl)-5-(trifluoromethyl)phenyl)-2-((3-phenylpropyl)thio)acetamide]
- IC50 [1]: > 10 µM

Compound: Cc1ccc(-n2cncn2)c(NC(=O)CSCCc2ccccc2)c1 [B5, N-(5-methyl-2-(1H-1,2,4-triazol-1-yl)phenyl)-2-(phenethylthio)acetamide]
- IC50 [2]: > 10 µM

Compound: Cc1ccc(-n2cncn2)c(NC(=O)CSCCCc2ccccc2)c1 [B6, N-(5-methyl-2-(1H-1,2,4-triazol-1-yl)phenyl)-2-(phenypropylthio)acetamide]
- reversal of ASTA inhibition of forskolin-induced cAMP in ASTA-R-expressing cells [3]: both B5 and B6 act as ASTA antagonists by interacting with ASTA-R
